Reference: PubChem BioAssay AID248 (DTP/NCI, 2004)
Toxic doses and inconclusive results are not listed. Cut-off read from the data, not from the text of the source: active = T/C of 150% or more; inactive = T/C below 125%.

Test system: L1210 leukemia ip in BDF1 mice, survival T/C
Assay: NCI In Vivo Anticancer Drug Screen. Data for tumor model L1210 Leukemia (intraperitoneal) in B6D2F1 (BDF1) mice
Details: endpoint: mean survival time, higher = longer survival
Summary of the method: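 Transplanted-tumor mice were given test agent; controls received vehicle only. Survival readings from the two groups were divided (treated over control).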

[1] = dose: 100.0 mg/kg/injection, schedule: Q01DX009 (ip), vehicle: Klucel (hydroxypropylcellulose) (HPC)
[2] = dose: 200.0 mg/kg/injection, schedule: Q01DX009 (ip), vehicle: Klucel (hydroxypropylcellulose) (HPC)
[3] = dose: 400.0 mg/kg/injection, schedule: Q01DX009 (ip), vehicle: Klucel (hydroxypropylcellulose) (HPC)
[4] = dose: 100.0 mg/kg/injection, schedule: Q04DX002 (ip), vehicle: saline with Tween-80
[5] = dose: 200.0 mg/kg/injection, schedule: Q04DX002 (ip), vehicle: saline with Tween-80
[6] = dose: 400.0 mg/kg/injection, schedule: Q04DX002 (ip), vehicle: saline with Tween-80
[7] = dose: 100.0 mg/kg/injection, schedule: Q01DX001 (ip), vehicle: saline
[8] = dose: 200.0 mg/kg/injection, schedule: Q01DX001 (ip), vehicle: saline
[9] = dose: 400.0 mg/kg/injection, schedule: Q01DX001 (ip), vehicle: saline
[10] = dose: 100.0 mg/kg/injection, schedule: Q01DX009 (ip), vehicle: saline with Tween-80
[11] = dose: 200.0 mg/kg/injection, schedule: Q01DX009 (ip), vehicle: saline with Tween-80
[12] = dose: 400.0 mg/kg/injection, schedule: Q01DX009 (ip), vehicle: saline with Tween-80
[13] = dose: 100.0 mg/kg/injection, schedule: Q04DX003 (ip), vehicle: saline with Tween-80
[14] = dose: 200.0 mg/kg/injection, schedule: Q04DX003 (ip), vehicle: saline with Tween-80
[15] = dose: 400.0 mg/kg/injection, schedule: Q04DX003 (ip), vehicle: saline with Tween-80
[16] = dose: 50.0 mg/kg/injection, schedule: Q01DX009 (ip), vehicle: Klucel (hydroxypropylcellulose) (HPC)
[17] = dose: 100.0 mg/kg/injection, schedule: Q04DX003 (ip), vehicle: Klucel (hydroxypropylcellulose) (HPC)
[18] = dose: 200.0 mg/kg/injection, schedule: Q04DX003 (ip), vehicle: Klucel (hydroxypropylcellulose) (HPC)

Measured: T/C

COC(=O)N/N=C/c1ccc(NC(C)=O)cc1
inactive: [1] 95 % of control | [2] 101 % of control | [3] 97 % of control

O=C1Nc2ccc(Br)cc2C1=Nc1ccc(Cl)cc1
inactive: dose: 100.0 mg/kg/injection, schedule: Q04DX002 (ip), vehicle: Klucel (hydroxypropylcellulose) (HPC) 95 % of control | dose: 200.0 mg/kg/injection, schedule: Q04DX002 (ip), vehicle: Klucel (hydroxypropylcellulose) (HPC) 92 % of control | dose: 400.0 mg/kg/injection, schedule: Q04DX002 (ip), vehicle: Klucel (hydroxypropylcellulose) (HPC) 89 % of control

COC(=O)NS(=O)(=O)Nc1ccccc1
inactive: [4] 97 % of control | [5] 87 % of control | [6] 94 % of control

Cc1ccc(N=NC2C(=O)c3ccccc3C2=O)cc1
inactive: dose: 50.0 mg/kg/injection, schedule: Q01DX001 (ip), vehicle: saline 100 % of control | [7] 100 % of control | [8] 97 % of control | [9] 103 % of control

COc1cc(/C=C(/C#N)C(=O)N2CCOCC2)cc(OC)c1OC
inactive: [10] 87 % of control | [4] 90 % of control | [11] 93 % of control | [5] 104 % of control | [12] 93 % of control | [6] 101 % of control

O=C(O)/C=C\C(=O)Nc1ccc2c(c1)OCO2
inactive: [1] 98 % of control | [2] 94 % of control | [3] 91 % of control

CC(=O)NS(=O)(=O)c1ccc(N)cc1
inactive: [10] 94 % of control | [13] 98 % of control | [11] 94 % of control | [14] 98 % of control | [12] 95 % of control | [15] 100 % of control

CC(=O)OCC1OC2OC(c3ccccc3)=NC2C(OC(C)=O)C1OC(C)=O (stereo unspecified)
inactive: dose: 22.5 mg/kg/injection, schedule: Q01DX001 (ip), vehicle: carboxymethylcellulose (CMC) 97 % of control | dose: 45.0 mg/kg/injection, schedule: Q01DX001 (ip), vehicle: carboxymethylcellulose (CMC) 103 % of control | dose: 90.0 mg/kg/injection, schedule: Q01DX001 (ip), vehicle: carboxymethylcellulose (CMC) 105 % of control | dose: 180.0 mg/kg/injection, schedule: Q01DX001 (ip), vehicle: carboxymethylcellulose (CMC) 97 % of control

CC(C)(CN=Cc1ccccc1[O-])N=Cc1ccccc1[O-].[O]=[V]
inactive: dose: 50.0 mg/kg/injection, schedule: Q01DX009 (ip), vehicle: saline with Tween-80 98 % of control

COc1cccc(CC(=O)C(=O)O)c1
inactive: [16] 98 % of control | [1] 90 % of control | [17] 97 % of control | [2] 95 % of control | [18] 98 % of control

Cc1cccc(CN2C(=O)c3ccccc3C2=O)c1
inactive: dose: 100.0 mg/kg/injection, schedule: Q01DX001 (ip), vehicle: Klucel (hydroxypropylcellulose) (HPC) 100 % of control | dose: 200.0 mg/kg/injection, schedule: Q01DX001 (ip), vehicle: Klucel (hydroxypropylcellulose) (HPC) 103 % of control | dose: 400.0 mg/kg/injection, schedule: Q01DX001 (ip), vehicle: Klucel (hydroxypropylcellulose) (HPC) 102 % of control

O=C(NCCBr)c1ccc(N=Nc2ccccc2)cc1
inactive: dose: 20.0 mg/kg/injection, schedule: Q01DX009 (ip), vehicle: Klucel (hydroxypropylcellulose) (HPC) 95 % of control | dose: 20.0 mg/kg/injection, schedule: Q04DX003 (ip), vehicle: Klucel (hydroxypropylcellulose) (HPC) 103 % of control | dose: 40.0 mg/kg/injection, schedule: Q01DX009 (ip), vehicle: Klucel (hydroxypropylcellulose) (HPC) 95 % of control | dose: 40.0 mg/kg/injection, schedule: Q04DX003 (ip), vehicle: Klucel (hydroxypropylcellulose) (HPC) 103 % of control | dose: 80.0 mg/kg/injection, schedule: Q01DX009 (ip), vehicle: Klucel (hydroxypropylcellulose) (HPC) 91 % of control | dose: 80.0 mg/kg/injection, schedule: Q04DX003 (ip), vehicle: Klucel (hydroxypropylcellulose) (HPC) 105 % of control

CCN(CC)C(=S)SCn1nc(Cl)c2ccc([N+](=O)[O-])cc21
inactive: [7] 98 % of control | [8] 98 % of control | [9] 91 % of control

CC(O)(c1ccccc1)C(C)(O)c1ccccc1 (stereo unspecified)
inactive: dose: 50.0 mg/kg/injection, schedule: Q04DX002 (ip), vehicle: saline with Tween-80 114 % of control | [4] 96 % of control | [5] 93 % of control

CC1(C)OC2OC(CO)C(O)C(O)C2O1 (stereo unspecified)
inactive: dose: 100.0 mg/kg/injection, schedule: Q04DX002 (ip), vehicle: saline 94 % of control | dose: 200.0 mg/kg/injection, schedule: Q04DX002 (ip), vehicle: saline 94 % of control | dose: 400.0 mg/kg/injection, schedule: Q04DX002 (ip), vehicle: saline 94 % of control

CCCCCCCCCCCCCCCCN(C)S(=O)(=O)c1ccc(N2CCOCC2)c(N)c1
inactive: dose: 100.0 mg/kg/injection, schedule: Q04DX003 (ip), vehicle: gum acacia 88 % of control | dose: 200.0 mg/kg/injection, schedule: Q04DX003 (ip), vehicle: gum acacia 93 % of control | dose: 400.0 mg/kg/injection, schedule: Q04DX003 (ip), vehicle: gum acacia 86 % of control

O=C(O)c1cc(C(=O)O)cc(S(=O)(=O)F)c1
inactive: [10] 92 % of control | [13] 91 % of control | [11] 88 % of control | [14] 86 % of control | [12] 97 % of control | [15] 99 % of control

COc1ccc2c(=O)c(C)c(-c3ccccc3)oc2c1CN(C)C
inactive: dose: 0.19 mg/kg/injection, schedule: Q01DX009 (ip), vehicle: saline 96 % of control | dose: 0.39 mg/kg/injection, schedule: Q01DX009 (ip), vehicle: saline 112 % of control | dose: 0.78 mg/kg/injection, schedule: Q01DX009 (ip), vehicle: saline 110 % of control | dose: 0.78 mg/kg/injection, schedule: Q04DX003 (ip), vehicle: saline 100 % of control | dose: 1.56 mg/kg/injection, schedule: Q01DX009 (ip), vehicle: saline 112 % of control | dose: 1.56 mg/kg/injection, schedule: Q04DX003 (ip), vehicle: saline 94 % of control | dose: 3.12 mg/kg/injection, schedule: Q01DX009 (ip), vehicle: saline 108 % of control | dose: 3.12 mg/kg/injection, schedule: Q04DX003 (ip), vehicle: saline 93 % of control | dose: 5.0 mg/kg/injection, schedule: Q01DX001 (ip), vehicle: saline 103 % of control

CC1(C)CC2C(=O)c3ccccc3NC2c2ccccc21 (stereo unspecified)
inactive: dose: 50.0 mg/kg/injection, schedule: Q01DX001 (ip), vehicle: carboxymethylcellulose (CMC) 96 % of control | dose: 100.0 mg/kg/injection, schedule: Q01DX001 (ip), vehicle: carboxymethylcellulose (CMC) 102 % of control | dose: 100.0 mg/kg/injection, schedule: Q04DX003 (ip), vehicle: acetone 91 % of control | dose: 200.0 mg/kg/injection, schedule: Q01DX001 (ip), vehicle: carboxymethylcellulose (CMC) 98 % of control | dose: 200.0 mg/kg/injection, schedule: Q04DX003 (ip), vehicle: acetone 86 % of control | dose: 400.0 mg/kg/injection, schedule: Q01DX001 (ip), vehicle: carboxymethylcellulose (CMC) 98 % of control | dose: 400.0 mg/kg/injection, schedule: Q04DX003 (ip), vehicle: acetone 93 % of control

CP1CCC(O)(C(C)(C)C)CC1 (stereo unspecified)
inactive: dose: 75.0 mg/kg/injection, schedule: Q01DX001 (ip), vehicle: other 101 % of control | dose: 150.0 mg/kg/injection, schedule: Q01DX001 (ip), vehicle: other 91 % of control

c1ccc(-c2ccc(C3=NC(c4ccccc4)CC3)[nH]2)cc1 (stereo unspecified)
inactive: [16] 90 % of control | [1] 90 % of control | [2] 86 % of control

C[N+](C)(C)CC(=O)N/N=C\c1c(O)ccc2ccccc12
inactive: dose: 25.0 mg/kg/injection, schedule: Q04DX003 (ip), vehicle: saline with Tween-80 97 % of control | dose: 50.0 mg/kg/injection, schedule: Q04DX003 (ip), vehicle: saline with Tween-80 104 % of control | [17] 100 % of control | [13] 97 % of control | [18] 93 % of control
